Test results reported in patent publication US6465654B2, “Process for preparing 1-substituted, 2-substituted 1H-imidazo[4, 5-c]quinoline-4-amines” (3M Innovative Properties Company, priority 1991, dated 2002).

Key:
[1] = tested on: Herpes simplex virus Type II strain 333; experiment: Antiviral activity in guinea pigs infected with Herpes simplex virus Type II (lesion inhibition); format: in vivo; conditions: oral once daily for four days
Text: Female Hartley guinea pigs weighing 200 to 250 g are anesthetized with methoxyflurane (available under the […] from Pitman-Moore, Inc., Washington Crossing, N.J.), after which the vaginal area is swabbed with a dry cotton swab. The guinea pigs are then infected intravaginally with a cotton swab saturated with Herpes simplex virus Type II strain 333 (1×10^5 plaque forming units/mL). Guinea pigs are assigned to groups of 7 animals; one group for each treatment and one to serve as a control (vehicle treated). The compounds of the invention are formulated in water containing 5% Tween 80 (a polyoxyethylene sorbitan monooleate available from Aldrich Chemical Company, Inc., Milwaukee, Wis.). The, guinea pigs are treated orally once daily for four consecutive days starting 24 hours after infection. Antiviral activity is evaluated by comparing lesion development in compound-treated versus vehicle-treated guinea pigs. […] The maximum lesion score of each guinea pig is used to calculate the percentage lesion inhibition. The percentage lesion inhibition is calculated as follows: […]

[2] = tested on: interferon; experiment: Interferon induction in guinea pigs (serum interferon titer); format: in vivo; conditions: guinea pig serum 24 hours after initial oral dose
Text: Female Hartley guinea pigs weighing 200 to 250 g are anesthetized with methoxyflurane (available under the […] from Pitman-Moore, Inc., Washington Crossing, N.J.), after which the vaginal area is swabbed with a dry cotton swab. The guinea pigs are then infected intravaginally with a cotton swab saturated with Herpes simplex virus Type II strain 333 (1×10^5 plaque forming units/mL). Guinea pigs are assigned to groups of 7 animals; one group for each treatment and one to serve as a control (vehicle treated). The compounds of the invention are formulated in water containing 5% Tween 80 (a polyoxyethylene sorbitan monooleate available from Aldrich Chemical Company, Inc., Milwaukee, Wis.). The, guinea pigs are treated orally once daily for four consecutive days starting 24 hours after infection. Twenty-four hours after the initial dose of test compound has been administered, blood is obtained from 3 guinea pigs from each treatment group by cardiac puncture of methoxyflurane anesthetized animals. Blood is pooled and allowed to clot at room temperature. After low speed centrifugation, serum is collected and stored at -70° C. until analysis. Interferon levels in the guinea pig serum are determined in a standard microtiter assay using transformed guinea pig cells (ATCC CRL 1405). The interferon assay is done in 96 well microtiter plates. Confluent monolayers of transformed guinea pig cells are treated with dilutions of guinea pig serum made with medium 199 (GIBCO, Grand Island, N.Y.). The cell and serum dilutions are incubated at 37° C. overnight. The following day, the medium and serum are removed and about 10 plaque forming units of Mengovirus are added to each well. Controls consist of wells that receive no guinea pig serum (virus positive control) and wells that receive no virus (virus negative control). Cells and virus are incubated for 2 to 3 days at 37° C. before quantifying for viral cytopathic effect. The viral cytopathic effect is quantified by staining with 0.05% crystal violet followed by spectrophotometric absorbance measurements. The titer of interferon in serum is expressed as units/mL and is the reciprocal of the highest dilution that protects cells from virus.

[3] = tested on: interferon-α; experiment: Interferon-α induction in human cells, PBM; format: cell-based; conditions: 24 hours
[4] = tested on: interferon-α; experiment: Interferon-α induction in human cells, diluted whole blood; format: cell-based; conditions: 24 hours
[5] = tested on: interferon; experiment: Interferon induction in mice; format: in vivo; conditions: mouse serum
Outline: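 Mouse serum collected at 1, 2 and 4 h (separate groups), pooled, stored at −70° C, then assayed as for human-cell interferon. Values in α/β reference units/mL against a mouse MU-1-IF standard; "<" marks levels below assay sensitivity.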

[6] = tested on: MC-26 colon tumor cells; experiment: Inhibition of MC-26 tumors in mice, 14 day lung colony count; format: in vivo; conditions: lung colonies day 14, 4×10^4 MC-26 cells i.v., oral 30 mg/kg on days 3-7 and 10-14; control 385 ± 31
Description: The mice are sacrificed 14 days later. […] Five mice are in each treatment group and comparisons are made to controls. […] The mice in the control groups were dosed orally with saline (10 mL/kg) on days 3, 4, 5, 6, and 7, and with water (10 mL/kg) on days 10, 11, 12, 13, and 14.

[7] = tested on: vesicular stomatitis virus (VSV); experiment: microbe, parasite or virus in culture; format: cell-based; conditions: Vesicular stomatitis virus, read-out: VSV Yield Inhibition
[8] = tested on: MC-26 colon tumor cells; experiment: Inhibition of MC-26 tumors in mice, 21 day lung colony count; conditions: lung colonies day 21, 1×10^4 MC-26 cells i.v., control 55 ± 11
Description: On day 0 female CDF1 mice are inoculated i.v. with 1×10^4 MC-26 colon tumor cells in a volume of 0.2 mL of saline per mouse. The mice are sacrificed 21 days later. The lungs are removed and fixed with WARF then allowed to stand for 30 minutes. The lobes are separated and the colonies are counted. Ten mice are in each treatment group and in the control group.
The mice in the control group were dosed orally with water (10 mL/Kg) on days 0, 1, 2, 3 and 4.

| SMILES | % Lesion Inhibition ([1]; dose 0.5 mg/kg) [%] | Reference Units/mL (interferon in serum) ([2]; 0.5 mg/kg) | Interferon-α induction ([3]; dose concentration 0.01 μg/mL) | Interferon-α induction ([3]; dose concentration 0.05 μg/mL) | Interferon-α induction ([3]; dose concentration 0.10 μg/mL) | Interferon-α induction ([3]; dose concentration 0.50 μg/mL) | Interferon-α induction ([3]; dose concentration 1.0 μg/mL) | Interferon-α induction ([3]; dose concentration 5.0 μg/mL) | Interferon-α induction ([4]; dose concentration 0.10 μg/mL) | Interferon-α induction ([4]; dose concentration 0.50 μg/mL) | Interferon induction in mice ([5]; oral 1 mg/kg, 1 hr) [Reference Units/mL] | Interferon induction in mice ([5]; oral 1 mg/kg, 2 hr) [Reference Units/mL] | Interferon induction in mice ([5]; oral 1 mg/kg, 4 hr) | Interferon induction in mice ([5]; oral 3 mg/kg, 1 hr) [Reference Units/mL] | Interferon induction in mice ([5]; oral 3 mg/kg, 2 hr) [Reference Units/mL] | Interferon induction in mice ([5]; oral 3 mg/kg, 4 hr) | Interferon induction in mice ([5]; oral 10 mg/kg, 1 hr) [Reference Units/mL] | Interferon induction in mice ([5]; oral 10 mg/kg, 2 hr) [Reference Units/mL] | Interferon induction in mice ([5]; oral 10 mg/kg, 4 hr) | Number of Colonies [6] | other results |
| --- | --- | --- | --- | --- | --- | --- | --- | --- | --- | --- | --- | --- | --- | --- | --- | --- | --- | --- | --- | --- | --- |
| CC(C)Cn1c(CN=[N+]=[N-])nc2c(N)nc3ccccc3c21 [Example 11, 2-Azidomethyl-1-(2-methylpropyl)-1H-imidazo-[4,5-c]quinolin-4-amine] | 100 | >12,800 Units/mL | 330 α Reference Units/mL | 330 α Reference Units/mL | 570 α Reference Units/mL | 570 α Reference Units/mL | 570 α Reference Units/mL | 570 α Reference Units/mL | 330 α Reference Units/mL | 330 α Reference Units/mL | 280 | 1100 | 71 Reference Units/mL | 490 | 1900 | 30 Reference Units/mL | 1100 | 2500 | 280 Reference Units/mL | 204 ± 28 | % Lesion Inhibition ([1]; dose 0.1 mg/kg): 50%; % Lesion Inhibition ([1]; dose 1 mg/kg): 100%; Reference Units/mL (interferon in serum) ([2]; 1 mg/kg): >12,800 Units/mL; Interferon-α induction ([4]; dose concentration 1.0 μg/mL): 250 α Reference Units/mL; Interferon-α induction ([4]; dose concentration 5.0 μg/mL): 140 α Reference Units/mL; Interferon induction in mice ([5]; oral 30 mg/kg, 1 hr): 850 Reference Units/mL; Interferon induction in mice ([5]; oral 30 mg/kg, 2 hr): 2500 Reference Units/mL; Interferon induction in mice ([5]; oral 30 mg/kg, 4 hr): 40 Reference Units/mL |
| CC(C)Cn1c(CN2CCOCC2)nc2c(N)nc3ccccc3c21 [Example 12, 1-(2-Methylproyl)-2-morpholinomethyl-1H-imidazo-[4,5-c]quinolin-4-amine] | 82 | >12,800 Units/mL | – | – | – | – | – | – | <1.8 α Reference Units/mL | 37 α Reference Units/mL | 94 | 160 | <18 Reference Units/mL | 54 | 40 | <18 Reference Units/mL | 850 | 850 | 40 Reference Units/mL | 149 ± 21 | % Lesion Inhibition ([1]; dose 2 mg/kg): 100%; Reference Units/mL (interferon in serum) ([2]; 2 mg/kg): >12,800 Units/mL; Interferon-α induction ([4]; dose concentration 1.0 μg/mL): 140 α Reference Units/mL; Interferon-α induction ([4]; dose concentration 5.0 μg/mL): 330 α Reference Units/mL; Interferon induction in mice ([5]; oral 30 mg/kg, 1 hr): 850 Reference Units/mL; Interferon induction in mice ([5]; oral 30 mg/kg, 2 hr): 5800 Reference Units/mL; Interferon induction in mice ([5]; oral 30 mg/kg, 4 hr): 40 Reference Units/mL |
| CSCc1nc2c(N)nc3ccccc3c2n1Cc1ccccc1 [Example 31, 2-Methylthiomethyl-1-phenylmethyl-1H-imidazo-[4,5-c]quinolin-4-amine] | – | – | <4 α Reference Units/mL | 18 α Reference Units/mL | 2500 α Reference Units/mL | 370 α Reference Units/mL | 280 α Reference Units/mL | 370 α Reference Units/mL | – | – | <61 | 140 | ≦61 Reference Units/mL | 420 | 420 | 320 Reference Units/mL | 960 | 5000 | 550 Reference Units/mL | 221 ± 37 | Interferon induction in mice ([5]; oral 0.3 mg/kg, 1 hr): <61 Reference Units/mL; Interferon induction in mice ([5]; oral 0.3 mg/kg, 2 hr): <61 Reference Units/mL; Interferon induction in mice ([5]; oral 0.3 mg/kg, 4 hr): <61 Reference Units/mL; log reduction at 1 µg/mL [7]: 5; log reduction at 5 µg/mL [7]: 5; log reduction at 10 µg/mL [7]: 6 |
| CCOCc1nc2c(N)nc3ccccc3c2n1CC(C)(C)O [Example 99, 4-Amino-α,α-dimethyl-2-ethoxymethyl-1H-imidazo[4,5-c]quinoline-1-ethanol] | – | – | 28 α Reference Units/mL | 316 α Reference Units/mL | 280 α Reference Units/mL | 790 α Reference Units/mL | 790 α Reference Units/mL | 630 α Reference Units/mL | – | – | 2200 | 5100 | 460 Reference Units/mL | 1600 | 750 | ˜220 Reference Units/mL | 2500 | 4600 | ˜220 Reference Units/mL | – | Interferon induction in mice ([5]; oral 0.3 mg/kg, 1 hr): 1600 Reference Units/mL; Interferon induction in mice ([5]; oral 0.3 mg/kg, 2 hr): 3500 Reference Units/mL; Interferon induction in mice ([5]; oral 0.3 mg/kg, 4 hr): 390 Reference Units/mL; log reduction at 0.1 µg/mL [7]: 5; log reduction at 0.5 µg/mL [7]: 5; log reduction at 1 µg/mL [7]: 5; Number of Colonies ([8]; oral 1 mg/Kg on days 0-4): 29 ± 4; Number of Colonies ([8]; oral 3 mg/Kg on days 0-4): 17 ± 3 |
